Test in all cases: relative viability (nuclei count vs DMSO), 5 days (fraction); higher = more cells survive
Compound in experiment [1]: COC1=CC=C(C=C1)CN2C=CC3=C2C=C(C=C3)C(=O)NO + Nc1ncn([C@H]2C[C@H](O)[C@@H](CO)O2)c(=O)n1 [Decitabine] (partner 2 µM)
The procedure, abridged: (§1)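 Relative viability divides the nuclei count in treated wells by that in vehicle wells. Lung cancer cell lines were seeded in 1536-well plates, dosed by pin tool the next day, and fixed and stained after 5 days in one step with final 0.05% Triton X-100, 1% formaldehyde and 1 ug/ml Hoechst. Dosing was a single drug or a fixed anchor-drug dose plus five library-drug doses (not always all listed) in √10 steps, and values are medians of duplicate plates imaged at 4×.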

Compound in experiment [2]: COC1=CC=C(C=C1)CN2C=CC3=C2C=C(C=C3)C(=O)NO + O=C(CCCCCCC(=O)Nc1ccccc1)NO [Vorinostat] (partner 1 µM)
The method in brief: as §1

Compound in experiment [3]: C[C@]1(c2nc3c(C(N)=O)cccc3[nH]2)CCCN1 [Veliparib] + CS(=O)(=O)CCNCc1ccc(-c2ccc3ncnc(Nc4ccc(OCc5cccc(F)c5)c(Cl)c4)c3c2)o1 [Lapatinib] (partner 2 µM)
The procedure, abridged: as §1

Compound in experiment [4]: COC1=CC=C(C=C1)CN2C=CC3=C2C=C(C=C3)C(=O)NO + Cc1nc(NC(=O)N2CCC[C@H]2C(N)=O)sc1-c1ccnc(C(C)(C)C(F)(F)F)c1 [Alpelisib] (partner 2 µM)
The procedure, abridged:
as §1

Regarding SW 1573, the relative viability worked out at 0.525 in experiment [1] (first compound 0.253 µM); 0.59 in experiment [1] (first compound 0.8 µM); 0.471 in experiment [1] (first compound 2.53 µM); 0.258 in experiment [1] (first compound 8 µM); 0.76 in experiment [2] (first compound 0.253 µM); 0.804 in experiment [2] (first compound 0.8 µM). Moreover, the relative viability in experiment [2] (first compound 2.53 µM) was 0.818; in experiment [2] (first compound 8 µM), 0.622; in experiment [3] (first compound 0.02 µM) it was 1.04; in experiment [3] (first compound 0.06325 µM), 1.02; in experiment [3] (first compound 0.2 µM), 0.929; in experiment [3] (first compound 0.6325 µM), 1.05. The relative viability turned out to be 1.04 in experiment [3] (first compound 2 µM); 0.824 in experiment [4] (first compound 0.253 µM); 0.734 in experiment [4] (first compound 0.8 µM); 0.72 in experiment [4] (first compound 2.53 µM); 0.787 in experiment [4] (first compound 8 µM).
